From patent publication US20240300932A1, “N-PHENYLIMINE DERIVATIVE AND PREPARATION METHOD AND USE THEREOF” (Guizhou University, priority 2023, published 2024)

Experiments:
Experiment in all cases: Post-emergence herbicidal activity test (stem and leaf spray, pot culture)
Assay type in all cases: in vivo
Conditions in all cases: 3 weeks after spraying
Abutilon theophrasti = tested on: Abutilon theophrasti
Outline: (§1)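 Read-out: fresh weight control rate 3 weeks post-spray, graded 5 (≥85%) down to 0 (<5%). Foliar spray at 2–3-leaf stage; rates 10, 5, 2.5 g/mu; acetone + Tween 80 formulation with methyl oleate synergist; greenhouse 20–30 °C, natural light.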

Amaranthus retroflexus = tested on: Amaranthus retroflexus
Outline: as §1

Echinochloa crusgalli = tested on: Echinochloa crusgalli
Outline: as §1

Portulaca oleracea = tested on: Portulaca oleracea
Outline: as §1

Setaria viridis = tested on: Setaria viridis
Outline: as §1

Trifoliumre pensL. = tested on: Trifoliumre pensL.
Outline: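 Pot-grown weeds in loam (pH 7), greenhouse at 20–30 °C, sprayed once post-emergence at the 2–3-leaf stage. Compound in acetone with Tween 80 plus methyl oleate oil (1.5 L/ha), applied at 10, 5 and 2.5 g/mu by spray tower. Effect scored 3 weeks after spraying, averaged over three repeats.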

Structure (SMILES) | Post-emergence herbicidal activity, A. theophrasti (grade) (Abutilon theophrasti; dosage 2.5 g/mu) | Post-emergence herbicidal activity, A. theophrasti (grade) (Abutilon theophrasti; dosage 5 g/mu) | Post-emergence herbicidal activity, A. theophrasti (grade) (Abutilon theophrasti; dosage 10 g/mu) | Post-emergence herbicidal activity, A. retroflexus (grade) (Amaranthus retroflexus; dosage 2.5 g/mu) | Post-emergence herbicidal activity, A. retroflexus (grade) (Amaranthus retroflexus; dosage 5 g/mu) | Post-emergence herbicidal activity, A. retroflexus (grade) (Amaranthus retroflexus; dosage 10 g/mu) | Post-emergence herbicidal activity, E. crusgalli (grade) (Echinochloa crusgalli; dosage 2.5 g/mu) | Post-emergence herbicidal activity, E. crusgalli (grade) (Echinochloa crusgalli; dosage 5 g/mu) | Post-emergence herbicidal activity, E. crusgalli (grade) (Echinochloa crusgalli; dosage 10 g/mu) | Post-emergence herbicidal activity, P. oleracea (grade) (Portulaca oleracea; dosage 2.5 g/mu) | Post-emergence herbicidal activity, P. oleracea (grade) (Portulaca oleracea; dosage 5 g/mu) | Post-emergence herbicidal activity, P. oleracea (grade) (Portulaca oleracea; dosage 10 g/mu) | Post-emergence herbicidal activity, S. viridis (grade) (Setaria viridis; dosage 2.5 g/mu) | Post-emergence herbicidal activity, S. viridis (grade) (Setaria viridis; dosage 5 g/mu) | Post-emergence herbicidal activity, S. viridis (grade) (Setaria viridis; dosage 10 g/mu) | Post-emergence herbicidal activity, Trifoliumre pensL. (grade) (Trifoliumre pensL.; dosage 2.5 g/mu) | Post-emergence herbicidal activity, Trifoliumre pensL. (grade) (Trifoliumre pensL.; dosage 5 g/mu) | Post-emergence herbicidal activity, Trifoliumre pensL. (grade) (Trifoliumre pensL.; dosage 10 g/mu)
O=C1C2=C(CCCC2)C(=O)N1c1cc(OCc2nnc(-c3ccc([N+](=O)[O-])cc3)o2)c(Cl)cc1F [Compound B18] | 4 (Grade 4: the growth control rate is greater than or equal to 60% and less than 85%) | 5 (Grade 5: the growth control rate is greater than or equal to 85%) | 5 (Grade 5: the growth control rate is greater than or equal to 85%) | 5 (Grade 5: the growth control rate is greater than or equal to 85%) | 5 (Grade 5: the growth control rate is greater than or equal to 85%) | 5 (Grade 5: the growth control rate is greater than or equal to 85%) | 1 (Grade 1: the growth control rate is greater than or equal to 5% and less than 20%) | 2 (Grade 2: the growth control rate is greater than or equal to 20% and less than 40%) | 3 (Grade 3: the growth control rate is greater than or equal to 40% and less than 60%) | 4 (Grade 4: the growth control rate is greater than or equal to 60% and less than 85%) | 5 (Grade 5: the growth control rate is greater than or equal to 85%) | 5 (Grade 5: the growth control rate is greater than or equal to 85%) | 2 (Grade 2: the growth control rate is greater than or equal to 20% and less than 40%) | 3 (Grade 3: the growth control rate is greater than or equal to 40% and less than 60%) | 4 (Grade 4: the growth control rate is greater than or equal to 60% and less than 85%) | 5 (Grade 5: the growth control rate is greater than or equal to 85%) | 5 (Grade 5: the growth control rate is greater than or equal to 85%) | 5 (Grade 5: the growth control rate is greater than or equal to 85%)
O=C1C2=C(CCCC2)C(=O)N1c1cc(OCc2nnc(-c3ccc(Cl)cc3F)o2)c(Cl)cc1F [Compound B19] | 5 (Grade 5: the growth control rate is greater than or equal to 85%) | 5 (Grade 5: the growth control rate is greater than or equal to 85%) | 5 (Grade 5: the growth control rate is greater than or equal to 85%) | 5 (Grade 5: the growth control rate is greater than or equal to 85%) | 5 (Grade 5: the growth control rate is greater than or equal to 85%) | 5 (Grade 5: the growth control rate is greater than or equal to 85%) | 1 (Grade 1: the growth control rate is greater than or equal to 5% and less than 20%) | 2 (Grade 2: the growth control rate is greater than or equal to 20% and less than 40%) | 3 (Grade 3: the growth control rate is greater than or equal to 40% and less than 60%) | 5 (Grade 5: the growth control rate is greater than or equal to 85%) | 5 (Grade 5: the growth control rate is greater than or equal to 85%) | 5 (Grade 5: the growth control rate is greater than or equal to 85%) | 2 (Grade 2: the growth control rate is greater than or equal to 20% and less than 40%) | 3 (Grade 3: the growth control rate is greater than or equal to 40% and less than 60%) | 4 (Grade 4: the growth control rate is greater than or equal to 60% and less than 85%) | 5 (Grade 5: the growth control rate is greater than or equal to 85%) | 5 (Grade 5: the growth control rate is greater than or equal to 85%) | 5 (Grade 5: the growth control rate is greater than or equal to 85%)
O=C1C2=C(CCCC2)C(=O)N1c1cc(OCc2nnc(-c3ccc([N+](=O)[O-])cc3F)o2)c(Cl)cc1F [Compound B20] | 5 (Grade 5: the growth control rate is greater than or equal to 85%) | 5 (Grade 5: the growth control rate is greater than or equal to 85%) | 5 (Grade 5: the growth control rate is greater than or equal to 85%) | 4 (Grade 4: the growth control rate is greater than or equal to 60% and less than 85%) | 5 (Grade 5: the growth control rate is greater than or equal to 85%) | 5 (Grade 5: the growth control rate is greater than or equal to 85%) | 1 (Grade 1: the growth control rate is greater than or equal to 5% and less than 20%) | 2 (Grade 2: the growth control rate is greater than or equal to 20% and less than 40%) | 3 (Grade 3: the growth control rate is greater than or equal to 40% and less than 60%) | 5 (Grade 5: the growth control rate is greater than or equal to 85%) | 5 (Grade 5: the growth control rate is greater than or equal to 85%) | 5 (Grade 5: the growth control rate is greater than or equal to 85%) | 2 (Grade 2: the growth control rate is greater than or equal to 20% and less than 40%) | 3 (Grade 3: the growth control rate is greater than or equal to 40% and less than 60%) | 4 (Grade 4: the growth control rate is greater than or equal to 60% and less than 85%) | 4 (Grade 4: the growth control rate is greater than or equal to 60% and less than 85%) | 5 (Grade 5: the growth control rate is greater than or equal to 85%) | 5 (Grade 5: the growth control rate is greater than or equal to 85%)
COc1ccccc1C(=O)COc1cc(N2C(=O)C3=C(CCCC3)C2=O)c(F)cc1Cl [Compound C6, 2-(4-chloro-2-fluoro-5-(2-oxo-2-(2-methoxyphenyl)ethoxy)phenyl)-4,5,6,7-tetrahydro-1H-isoindole-1,3(2H)-dione] | 5 (Grade 5: the growth control rate is greater than or equal to 85%) | 5 (Grade 5: the growth control rate is greater than or equal to 85%) | 5 (Grade 5: the growth control rate is greater than or equal to 85%) | 5 (Grade 5: the growth control rate is greater than or equal to 85%) | 5 (Grade 5: the growth control rate is greater than or equal to 85%) | 5 (Grade 5: the growth control rate is greater than or equal to 85%) | 1 (Grade 1: the growth control rate is greater than or equal to 5% and less than 20%) | 2 (Grade 2: the growth control rate is greater than or equal to 20% and less than 40%) | 3 (Grade 3: the growth control rate is greater than or equal to 40% and less than 60%) | 5 (Grade 5: the growth control rate is greater than or equal to 85%) | 5 (Grade 5: the growth control rate is greater than or equal to 85%) | 5 (Grade 5: the growth control rate is greater than or equal to 85%) | 2 (Grade 2: the growth control rate is greater than or equal to 20% and less than 40%) | 3 (Grade 3: the growth control rate is greater than or equal to 40% and less than 60%) | 4 (Grade 4: the growth control rate is greater than or equal to 60% and less than 85%) | 5 (Grade 5: the growth control rate is greater than or equal to 85%) | 5 (Grade 5: the growth control rate is greater than or equal to 85%) | 5 (Grade 5: the growth control rate is greater than or equal to 85%)
